The values below are quoted from earlier work in patent publication US20180263245A1, “WATER-BASED DISINFECTANT” (priority 2015, published 2018).

SMILES strings stand for the structures.

For series [1] the following is noted: EPA.
Series [2] deals with bacteria. The conditions noted are these: without the Cu π-complex.

Consider `CCCCCCCCCCCC[N+](C)(C)Cc1ccccc1.[Cl-]` [C12 Quaternary Ammonium Chloride, Dodecyl Dimethyl Benzyl Ammonium Chloride], for which, in series [1], the genetic toxicity entry is listed as “does not believe it is a genetic toxicant”, the reproductive risks entry is listed as “does not believe it poses unacceptable reproductive risks” and the tumors entry is “negative for introduction of tumors”. For the same compound, in series [2], the “bacterial reduction versus FDA minimum performance standards” value was “exceeded the FDA-indicated minimum performance standards”.
